Where a name gives a salt, the structure may show the parent alone.
How the values were obtained:
[1] = Pharmacokinetics of the compounds in SD rats (Example 36); assay type: in vivo; conditions: SD rat plasma
Description: Preparation of compound stock solution: An appropriate amount of compound solid powder was be weighed and added in a certain amount of DMSO, and vortex ultrasound to obtain a 10 mg/mL stock solution.
(§1) Preparation of test compound for gavage: respectively taking an appropriate amount of the compound stock solution, adding a certain amount of Solutol HS15 solution, vortexing for 1 minute, then adding a certain amount of physiological saline, and fully mixing to obtain a 1 mg/mL solution.
as §1, with “for intravenous injection:” for “for gavage:”, “mixing until uniform, so as” for “mixing”, “a 0.5” for “a 1”
The experimental animals were fasted overnight before gavage administration, and were given food 4 hours after administration, with free access to water. Each test compound was divided into two groups, namely intravenous administration group and oral administration group.
Blood samples (150 μL/sample) were collected from the jugular vein of SD rats before administration and at 5 min (only intravenous administration group), 15 min, 30 min, 1 h, 2 h, 4 h, 8 h and 24 h after administration, respectively. The samples were placed in centrifuge tubes containing anticoagulant sodium heparin and centrifuged at 4° C., 2000 g for 5 minutes to separate plasma. The plasma samples were analyzed by LC/MS/MS to detect the concentration of each test compound.
Non-compartmental model-related parameters were calculated by WinNonlin® Professional software.

[2] = tested on: potassium oxonate-induced hyperuricemic rats; assay: Serum uric acid in potassium oxonate-induced hyperuricemic rats, 3 days of gavage (Example 35); assay type: in vivo, SD rats; conditions: for serum uric acid level compared with the model group at the same time point: 2 mg/kg for 3 days; for Uric acid 0 h / Uric acid 1 h / Uric acid 3 h / Uric acid 5 h: serum, 2 mg/kg gavage for 3 days, mean ± SD; for Uric acid 0 h: day 3, 0 h, before potassium oxonate injection, n=6; for Uric acid 1 h: day 3, 1 h after potassium oxonate injection; for Uric acid 3 h: day 3, 3 h after potassium oxonate injection; for Uric acid 5 h: day 3, 5 h after potassium oxonate injection
Description: Compound 13 was a light yellow powder, and compounds 38 and 41 are pseudo-white powders, which are triturated with 0.5% CMC-Na just prior to use to prepare a 0.4 mg/mL suspension for gavage.
36 male SD rats weighed approximately 220-240 g after one week of adaptation. […] The drugs in each group were prepared into a corresponding concentration suspension, and the administration volume was 0.5 mL/100 g.
After the rats in each group were purchased and adapted to feeding, they were fasted for 12 h, and, intraperitoneally, injected with⋅ potassium⋅ gxonate at a⋅dose of 300 mg/kg to establish the model. 0.5 h after modeling, each test drug group was gavaged once. The drug was administered continuously for 3 days. On day 3, blood samples was collected from the retro-orbital venous plexus before and 1, 3, and 5 h after potassium oxonate injection. The samples were centrifuged at 3500 rpm for 10 min, and 30 μL of serum was collected to determine the uric acid level at each time point.
The measurement data of each test were expressed as (mean)±standard deviation). The comparison between groups used ANOVA-Dunnett T test to examine the significance. P<0.05 was used as the significance index, and P<0.01 was used as the extremely significant index.

[3] = Intravenous injection administration - 1 mg/kg
[4] = po, Gavage administration - 10 mg/kg
[5] = 1, 3, and 5 h after modeling, P<0.01 or P<0.05

Row | Compound | AUC(0-inf) [1, 3] | Cmax [1, 3] | MRT inf [1, 3] | Tmax [1, 3] | half-life [1, 3] | AUC(0-inf) [1, 4] | Cmax [1, 4] | MRT inf [1, 4] | Tmax [1, 4] | half-life [1, 4] | serum uric acid level compared with the model group at the same time point [2, 5] | Uric acid 0 h [2] | Uric acid 1 h [2] | Uric acid 3 h [2] | Uric acid 5 h [2] | serum uric acid level compared with the model group at the same time point ([2]; 3 and 5 h after modeling, P<0.01)
1 | CCOC(=O)c1cnn(-c2ccc3c(c2)c(C#N)nn3C(C)C)c1 [Compound 2, ethyl 1-(3-cyano-1-isopropyl-1H-indazol-5-yl)-1H-pyrazole-4-carboxylate] | 1400 ng·h/mL | 843 ng/mL | 5.05 h | 0.139 h | 6.12 h | 30100 ng·h/mL | 4780 ng/mL | 4.78 h | 0.667 h | 2.91 h |  |  |  |  |  | 
2 | COC(=O)c1cnn(-c2ccc3c(c2)c(C#N)nn3C(C)C)c1 [Compound 5, methyl 1-(3-cyano-1-isopropyl-1H-indazol-5-yl)-1H-pyrazole-4-carboxylate] | 1490 ng·h/mL | 554 ng/mL | 8.38 h | 0.25 h | 7.45 h | 25100 ng·h/mL | 6750 ng/mL | 3.17 h | 1.17 h | 3.78 h |  |  |  |  |  | 
3 | CC(C)OC(=O)c1cnn(-c2ccc3c(c2)c(C#N)nn3C(C)C)c1 [Compound 7, isopropyl 1-(3-cyano-1-isopropyl-1H-indazol-5-yl)-1H-pyrazole-4-carboxylate] | 674 ng·h/mL | 338 ng/mL | 7.65 h | 0.194 h | 8.6 h | 12900 ng·h/mL | 2920 ng/mL | 3.84 h | 0.5 h | 3.27 h |  |  |  |  |  | 
4 | CC(C)=CCC/C(C)=C/CC/C(C)=C/COC(=O)c1cnn(-c2ccc3c(c2)c(C#N)nn3C(C)C)c1 [Compound 13, (3,7,11-trimethyldodecyl-2,6,10-trien-1-yl) 1-(3-cyano-1-isopropyl-1H-indazol-5-yl)-1H-pyrazole-4-carboxylate] |  |  |  |  |  |  |  |  |  |  | significantly reduce | 40.7 ± 4.4 µmol/L | 42.1 ± 10.6 µmol/L | 66.0 ± 10.7 µmol/L | 75.0 ± 7.1 µmol/L | 
5 | CC(=O)OCCOC(=O)c1ccnc(-c2ccc3c(c2)c(C#N)nn3C(C)C)c1 [Compound 28, (2-acetoxy)ethyl 2-(3-cyano-1-isopropyl-1H-indazol-5-yl) isonicotinate] | 947 ng·h/mL | 712 ng/mL | 4.31 h | 0.083 h | 8.21 h | 15800 ng·h/mL | 3150 ng/mL | 3.55 h | 2.17 h | 2.93 h |  |  |  |  |  | 
6 | CC(C)n1nc(C#N)c2cc(-n3cc(C(=O)OCCCCO[N+](=O)[O-])cn3)ccc21 [Compound 38, [4-(nitrooxy)] butyl 1-(3-cyano-1-isopropyl-1H-indazol-5-yl)-1H-pyrazole-4-carboxylate] |  |  |  |  |  |  |  |  |  |  | significantly reduce | 51.7 ± 5.9 µmol/L | 67.5 ± 19.3 µmol/L | 69.0 ± 24.7 µmol/L | 51.7 ± 6.7 µmol/L | 
7 | CC(C)n1nc(C#N)c2cc(-n3cc(C(=O)Oc4cccc(CO[N+](=O)[O-])c4)cn3)ccc21 [Compound 41, [3-(nitrooxy)methyl]phenyl 1-(3-cyano-1-isopropyl-1H-indazol-5-yl)-1H-pyrazole-4-carboxylate] |  |  |  |  |  |  |  |  |  |  |  | 50.6 ± 7.3 µmol/L | 74.1 ± 16.5 µmol/L | 72.2 ± 20.2 µmol/L | 55.4 ± 14.9 µmol/L | significantly reduce

Further lines, with some results ahead:

Row | AUC(0-inf) [1, 3] | Cmax [1, 3] | MRT inf [1, 3] | Tmax [1, 3] | half-life [1, 3] | AUC(0-inf) [1, 4] | Cmax [1, 4] | MRT inf [1, 4] | Tmax [1, 4] | half-life [1, 4] | Compound | serum uric acid level compared with the model group at the same time point [2, 5] | Uric acid 0 h [2] | Uric acid 1 h [2] | Uric acid 3 h [2] | Uric acid 5 h [2] | serum uric acid level compared with the model group at the same time point ([2]; 3 and 5 h after modeling, P<0.01)
8 | 776 ng·h/mL | 518 ng/mL | 6.46 h | 0.25 h | 8.78 h | 25300 ng·h/mL | 6170 ng/mL | 2.86 h | 0.667 h | 2.33 h | COC(=O)c1ccnc(-c2ccc3c(c2)c(C#N)nn3C(C)C)c1 [Compound 19, methyl 2-(3-cyano-1-isopropyl-1H-indazol-5-yl) isonicotinate] |  |  |  |  |  | 
9 | 1290 ng·h/mL | 1970 ng/mL | 2.47 h | 0.083 h | 7.11 h | 31000 ng·h/mL | 5520 ng/mL | 3.57 h | 0.917 h | 2.52 h | CCOC(=O)OC(C)OC(=O)c1ccnc(-c2ccc3c(c2)c(C#N)nn3C(C)C)c1 (stereo not drawn) [Compound 26, ethyl {1-[(ethoxycarbonyl)oxy]} 2-(3-cyano-1-isopropyl-1H-indazol-5-yl) isonicotinate] |  |  |  |  |  | 
10 | 1010 ng·h/mL | 904 ng/mL | 4.75 h | 0.083 h | 9.03 h | 20900 ng·h/mL | 4310 ng/mL | 3.39 h | 2 h | 2.75 h | COCCOC(=O)c1ccnc(-c2ccc3c(c2)c(C#N)nn3C(C)C)c1 [Compound 31, (2-methoxy)ethyl 2-(3-cyano-1-isopropyl-1H-indazol-5-yl) isonicotinate hydrobromide] |  |  |  |  |  | 
11 | 886 ng·h/mL | 714 ng/mL | 7.16 h | 0.083 h | 9.92 h | 18300 ng·h/mL | 3900 ng/mL | 3.9 h | 0.5 h | 3.03 h | CC(C)n1nc(C#N)c2cc(-c3cc(C(=O)OCCCCO[N+](=O)[O-])ccn3)ccc21 [Compound 39, [4-(nitrooxy)] butyl 2-(3-cyano-1-isopropyl-1H-indazol-5-yl) isonicotinate] |  |  |  |  |  | 
12 | 767 ng·h/mL | 2.82 ng/mL | 3.37 h | 0.083 h | 6.44 h | 8640 ng·h/mL | 1510 ng/mL | 4.12 h | 1.58 h | 2.91 h | CC(C)n1nc(C#N)c2cc(-c3cc(C(=O)Oc4cccc(CO[N+](=O)[O-])c4)ccn3)ccc21 [Compound 42, [3-(nitrooxy)methyl]phenyl 2-(3-cyano-1-isopropyl-1H-indazol-5-yl) isonicotinate] |  |  |  |  |  | 
